Measured values taken from patent US11535630B2, “Apelin receptor (APJ) agonists and uses thereof” (Research Triangle Institute, priority 2015, dated 2022).
Read-outs that look alike come from different tables or passages of the source.

Tests used:
[1] = target: T1, apelin receptor (APJ) (Homo sapiens, UniProt P35414); test: In vitro apelin agonist activity (methods of Giddings et al., Apelin-13 as positive control); type: cell-based
T1 sequence (P35414 1-380): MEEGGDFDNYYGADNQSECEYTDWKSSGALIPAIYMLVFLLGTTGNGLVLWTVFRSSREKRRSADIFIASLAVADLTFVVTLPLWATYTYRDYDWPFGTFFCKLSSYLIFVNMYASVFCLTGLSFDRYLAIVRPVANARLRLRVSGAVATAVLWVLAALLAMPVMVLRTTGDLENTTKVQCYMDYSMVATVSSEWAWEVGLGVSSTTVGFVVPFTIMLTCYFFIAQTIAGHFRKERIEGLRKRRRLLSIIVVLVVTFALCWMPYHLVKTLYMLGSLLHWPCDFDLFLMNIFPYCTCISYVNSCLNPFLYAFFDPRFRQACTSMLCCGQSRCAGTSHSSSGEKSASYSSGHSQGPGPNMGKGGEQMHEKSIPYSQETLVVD
Excerpt: Characterization of the Apelin Agonist Activity of the Compounds
1:39-47, the contents of which are hereby incorporated by reference in its entirety. Using the methods described in Giddings et al. and Apelin-13 as a positive control.

[2] = Caco-2 cellular uptake / permeability assay (A-to-B, B-to-A); type: in vitro ADME; conditions: human, Caco-2, pH 7.4
Method: 5.3. Cellular Uptake Assay
Caco-2 cells (clone C2BBe1) were obtained from American Type Culture Collection (Manassas, Va,). Cell monolayers were grown to confluence on collagen-coated, microporous, polycarbonate membranes in 12-well Costar Transwell plates. Details of the plates and their certification are shown below. The permeability assay buffer was Hanks' balanced salt solution (HBSS) containing 10 mM HEPES and 15 mM glucose at a pH of 7.4. The buffer in the receiver chamber also contained 1% bovine serum albumin. The dosing solution concentration was 5 μM for each test article in the assay buffer. Cell monolayers were dosed on the apical side (A-to-B) or basolateral side (B-to-A) and incubated at 37° C. with 5% CO2 in a humidified incubator. Samples were taken from the donor and receiver chambers at 120 minutes. Each determination was performed in duplicate. After the experiment, all assay buffers were removed from the inserts. Cell monolayers were dosed with blank 500 μM lucifer yellow on the A-to-B side and blank HBSS on the B-to-A side and incubated at 37° C. Samples were taken from the B-to-A side at 60 minutes. The flux of lucifer yellow was measured for each monolayer to ensure no damage was inflicted to the cell monolayers during the flux period. All samples were analyzed by LC-MS/MS using electrospray ionization.
Where, dCr/dt is the slope of the cumulative concentration in the receiver compartment versus time in μM s^−1;
Vr is the volume of the receiver compartment in cm^3;
Vd is the volume of the donor compartment in cm^3;
CA is the average of the nominal dosing concentration and the measured 120-minute donor concentration in μM;
CN is the nominal concentration of the dosing solution in μM;
Cr^final is the cumulative receiver concentration in μM at the end of the incubation period;
Cd^final is the concentration of the donor in μM at the end of the incubation period.
Efflux ratio (ER) is defined as Papp (B-to-A)/Papp (A-to-B).

[3] = tested on: male Sprague-Dawley rats; test: In vivo blood pressure lowering in conscious telemetered rats, oral gavage; design: species or system rat; conditions: for Diastolic blood pressure, 2-5 h mean change from baseline / MAP, 2-5 h mean change from baseline / Systolic blood pressure, 2-5 h mean change from baseline: rat; for Effect on blood pressure (in words): oral gavage 7.5, 15 or 30 mg/kg, male Sprague-Dawley rats
Method: In Vivo Blood Pressure Lowering Activity of the Compounds
Select compounds were evaluated for their effects upon oral administration on hemodynamic changes, including blood pressure reduction, in conscious, telemetered male Sprague-Dawley rats. Apelin peptides are known to lower blood pressure, e.g., Tatemoto, K., et.al. Regul. Pept. 2001, 99, 87-92.
Animals were approximately 7-9 weeks of age and weighed between 247 g to 263 g just prior to surgery. Dose levels administered were 7.5, 15 or 30 mg/kg, dose volumes were 10 mL/kg, and dose route of administration was oral gavage. Animals were assigned to a crossover experimental treatment schedule as shown below.
Collected data included systolic, diastolic, and mean arterial blood pressure (MAP). Data collection time points were for pre-dose baseline approximately 48 h (prior to treatment 1) or approximately 24 h (prior to treatment 2-4) for 10 sec every 2 min. Data collection post-dose was collected through approximately 24 h (data collected for 10 sec every 2 min) per treatment. Resulting data is presented below as the 2-5 h mean change from baseline in mmHg.

[4] = apelin agonist potency as listed in Table 3 (Cellular Uptake Results), read-out: EC50
[5] = in vitro apelin agonist activity, methods of Giddings et al., Apelin-13 as positive control, read-out: EC50 (nM) Ave

| EC50 [1, 4] | EC50 [1, 5] | efflux ratio at 120 min, 5 μM [2] | SMILES | Diastolic blood pressure, 2-5 h mean change from baseline ([3]; 7.5 mg/kg oral gavage) | MAP, 2-5 h mean change from baseline ([3]; 7.5 mg/kg oral gavage) | Systolic blood pressure, 2-5 h mean change from baseline ([3]; 7.5 mg/kg oral gavage) | Diastolic blood pressure, 2-5 h mean change from baseline ([3]; 15 mg/kg oral gavage) | MAP, 2-5 h mean change from baseline ([3]; 15 mg/kg oral gavage) | Systolic blood pressure, 2-5 h mean change from baseline ([3]; 15 mg/kg oral gavage) | Diastolic blood pressure, 2-5 h mean change from baseline ([3]; 30 mg/kg oral gavage) | MAP, 2-5 h mean change from baseline ([3]; 30 mg/kg oral gavage) | Systolic blood pressure, 2-5 h mean change from baseline ([3]; 30 mg/kg oral gavage) | Effect on blood pressure (in words) [3] |
| --- | --- | --- | --- | --- | --- | --- | --- | --- | --- | --- | --- | --- | --- |
| 15 nM | 15 nM | 1.7 | COc1cccc(OC)c1-c1cc(C(=O)N[C@@H](CCN2CCCC(F)(F)C2)CC(=O)Nc2nccs2)nn1C1CCCC1 [compound 384, (3S)-3-{[1-cyclopentyl-5-(2,6-dimethoxyphenyl)-1H-pyrazol-3-yl]formamido}-5-(3,3-difluoropiperidin-1-yl)-N-(1,3-thiazol-2-yl)pentanamide] |  |  |  |  |  |  |  |  |  |  |
| 44 nM | 44 nM | 3.6 | CCc1ccccc1-c1cc(C(=O)N[C@@H](CCN2CCCCC2)CC(=O)NC2CCC2)nn1C1CCCC1 [compound 363, (3S)-N-cyclobutyl-3-{[1-cyclopentyl-5-(2-ethylphenyl)-1H-pyrazol-3-yl]formamido}-5-(piperidin-1-yl)pentanamide] |  |  |  |  |  |  |  |  |  |  |
| 63 nM | 63 nM | 1 | COc1cccc(OC)c1-c1cc(C(=O)N[C@@H](CCN2CCC(F)(F)CC2)CC(=O)NC2CCC2)nn1C1CCCC1 [compound 335, (3S)-N-cyclobutyl-3-{[1-cyclopentyl-5-(2,6-dimethoxyphenyl)-1H-pyrazol-3-yl]formamido}-5-(4,4-difluoropiperidin-1-yl)pentanamide] |  |  |  |  |  |  |  |  |  |  |
| 7 nM | 7 nM | 1 | CCc1ccccc1-c1cc(C(=O)N[C@@H](CCN2CCCC(F)(F)C2)CC(=O)Nc2nccs2)nn1C1CCCC1 [compound 410, (3S)-3-{[1-cyclopentyl-5-(2-ethylphenyl)-1H-pyrazol-3-yl]formamido}-5-(3,3-difluoropiperidin-1-yl)-N-(1,3-thiazol-2-yl)pentanamide] |  |  |  |  |  |  |  |  |  |  |
|  | 25 nM |  | O=C(N[C@@H](CCN1CCCC(F)(F)C1)Cc1nnn[nH]1)c1cc(-c2ccccc2C(F)(F)F)n(C2CCCC2)n1 [compound 551, 1-cyclopentyl-N-[(2S)-4-(3,3-difluoropiperidin-1-yl)-1-(1H-1,2,3,4-tetrazol-5-yl)butan-2-yl]-5{2-(trifluoromethyl)phenyl]-1H-pyrazole-3-carboxamide] | −4.3 mmHg | −4.5 mmHg | −6.6 mmHg | −7.3 mmHg | −8.5 mmHg | −9.6 mmHg | −8.4 mmHg | −9.8 mmHg | −11.3 mmHg | dose-dependent, mild sustained decrease in blood pressure |
|  | 35 nM |  | Cl.O=C(O)C[C@H](CCN1CCCC(F)(F)C1)NC(=O)c1cc(-c2ccccc2C(F)(F)F)n(C2CCCC2)n1 [compound 423, (3S)-3-({1-cyclopentyl-5-[2-(trifluoromethyl)phenyl]-1H-pyrazol-3-yl}formamido)-5-(3,3-difluoropiperidin-1-yl)pentanoic acid] | −9.9 mmHg | −10.0 mmHg | −13.0 mmHg | −7.3 mmHg | −8.4 mmHg | −9.8 mmHg | −8.3 mmHg | −9.3 mmHg | −10.7 mmHg | mild sustained decrease in blood pressure |
| 15 nM | 15 nM | 2.1 | COc1cccc(OC)c1-c1cc(C(=O)N[C@@H](CCN2CCCC(F)(F)C2)CC(=O)NC2CCC2)nn1C1CCCC1 [compound 348, (3S)-N-cyclobutyl-3-{[1-cyclopentyl-5-(2,6-dimethoxyphenyl)-1H-pyrazol-3-yl]formamido}-5-(3,3-difluoropiperidin-1-yl)pentanamide] |  |  |  |  |  |  |  |  |  |  |
|  | 596 nM |  | O=C(O)C[C@@H](NC(=O)c1cc(-c2ccccc2C(F)(F)F)n(C2CCCC2)n1)C(=O)NC1CCOCC1 [compound 559, (3R)-3-({1-cyclopentyl-5-[2-(trifluoromethyl)phenyl]-1H-pyrazol-3-yl}formamido)-3-[(oxan-4-yl)carbamoyl]propanoic acid] |  |  |  |  |  |  |  |  |  |  |
